Laboratory results from PubChem BioAssay (NCI).
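Step 1: Grow cells in 96-well plates. Step 2: Expose to compound for 48 hours at 5 concentrations. Step 3: Interpolate endpoints linearly; if unreached, use highest concentration. Abbreviation: GI50, concentration required for 50% inhibition of growth. TGI marks complete inhibition of growth.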

Key:
Test in all cases: inhibition of tumour cell growth, NCI panel, 48 h
SF-295 CNS = tested on: SF-295 CNS
SW-620 colon = tested on: SW-620 colon
HCC-2998 colon = tested on: HCC-2998 colon
KM12 colon = tested on: KM12 colon
OVCAR-5 ovarian = tested on: OVCAR-5 ovarian
NCI-H460 lung = tested on: NCI-H460 lung
A498 renal = tested on: A498 renal
NCI-H226 lung = tested on: NCI-H226 lung

Row | Structure (SMILES) | TGI (SF-295 CNS) [µM] | TGI (SW-620 colon) [µM] | TGI (HCC-2998 colon) [µM] | TGI (KM12 colon) [µM] | TGI (OVCAR-5 ovarian) [µM] | TGI (NCI-H460 lung) [µM] | TGI (A498 renal) [µM] | TGI (NCI-H226 lung) [µM] | GI50 (SF-295 CNS) [µM] | GI50 (NCI-H226 lung) [µM] | GI50 (SW-620 colon) [µM] | GI50 (HCC-2998 colon) [µM] | GI50 (KM12 colon) [µM] | GI50 (OVCAR-5 ovarian) [µM] | GI50 (NCI-H460 lung) [µM] | GI50 (A498 renal) [µM]
1 | Cc1cc(NS(=O)(=O)c2ccc(Nc3c4ccccc4nc4c(C(=O)Nc5ccc(S(=O)(=O)N=C(N)N)cc5)cccc34)cc2)no1 | > 100 | > 100 | > 100 | > 100 | > 100 | > 100 | > 100 |  |  |  |  |  |  |  |  | 
2 | Cn1cnc([N+](=O)[O-])c1Sc1ccccn1 | > 100 | > 100 | > 100 | > 100 | > 100 | > 100 | > 100 | > 100 |  |  |  |  |  |  |  | 
3 | C[Si](C)(C)/C=C/CCC(C=O)(CCCl)c1ccccc1 (stereo not given) | 57.2 | > 100 | > 100 | > 100 | 97.7 | > 100 | > 100 |  |  |  |  |  |  |  |  | 
4 | O=C1C2c3[nH]c4ccccc4c3[C@@H]3CCCCCCCCCCC3C2C(=O)N1c1ccccc1 (stereo not given in full) | 42.1 | 35.5 | > 100 | 42 | > 100 | 34.8 |  | 95 |  |  |  |  |  |  |  | 
5 | COC(=O)C[CH](C(=O)OC)[Ge]([CH3])([CH3])[S]c1ccccc1 (stereo not given) | 40 | 26.8 | > 100 | 46.2 | 42.6 | 28.8 | 60.9 | 35.1 | 12.6 | 13.8 | 13 | 40.4 | 17 | 18.7 | 15.5 | 19.7
6 | CC1=NNC(=NCCN(C)C)C/C1=C/c1ccccc1Cl | > 100 | > 100 | > 100 | > 100 | > 100 | > 100 | > 100 |  |  |  |  |  |  |  |  | 
7 | N/C(=N\NS(=O)(=O)c1ccccc1)Oc1ccc(Cl)cc1 | > 100 | 19.5 | > 100 | > 100 | > 100 | > 100 | > 100 | > 100 |  |  |  |  |  |  |  | 
8 | COc1cc([C@@H]2c3cc4c(cc3[C@@H](NC(=O)c3ccc(N)cc3)C3COC(=O)[C@@H]32)OCO4)cc(OC)c1O (stereo not given in full) | 95.8 | 20.8 | 17.2 | 13.8 | 34.5 | 10.9 | 11.8 | 6.91 |  |  |  |  |  |  |  | 
9 | Cc1nc(C)c(C(=O)Nc2cccc3c2C(=O)NC3=O)cc1C(=O)Nc1cccc2c1C(=O)NC2=O | > 100 | > 100 | > 100 | > 100 | > 100 | > 100 | > 100 | > 100 |  |  |  |  |  |  |  | 
10 | c1ccc2c(CNCCCCCCNCc3cccc4ccccc34)cccc2c1 | 24.8 | 14.1 |  | 15.1 | 29.3 | 3.75 | 33.6 | 31.6 |  |  |  |  |  |  |  | 
11 | CC#C[C@@]1(O)CCCC[C@@H]1O | > 100 | > 100 | > 100 | > 100 |  | > 100 | > 100 | > 100 |  |  |  |  |  |  |  | 
12 | N#Cc1cccc(NC(=O)c2ccc(C(=O)O)c(C(=O)c3ccc(C(=O)O)c(C(=O)Nc4cccc(C#N)c4)c3)c2)c1 | > 100 | > 100 |  | > 100 | > 100 | > 100 | > 100 | > 100 |  |  |  |  |  |  |  | 
13 | Nc1nc2c(ncn2C2OC(CO)C(O)C2N)c(=O)[nH]1 (stereo not given) | > 100 | > 100 | > 100 | > 100 | > 100 | > 100 | > 100 |  |  |  |  |  |  |  |  | 
14 | COc1ccc2cccc(C(=O)c3ccc(C)c4c3CCC4)c2c1 | > 100 | > 100 | 43.1 | > 100 | > 100 | > 100 | 83.7 | > 100 |  |  |  |  |  |  |  | 
15 | OCC(O)C(O)c1nn(-c2ccccc2)c2nc3cc(Cl)c(Cl)cc3nc12 (stereo not given) | > 100 | > 100 | 86.5 | 81.2 | 58.4 | 82.1 |  | 73.6 |  |  |  |  |  |  |  | 
16 | CCC1C(C)c2c([nH]c3ccccc23)C2C(=O)N(c3ccccc3)C(=O)C21 (stereo not given) | 32.3 | 35.9 | 28.9 | 32.1 |  | 28.2 |  |  |  |  |  |  |  |  |  | 
17 | O=C(CC(=O)N1N=C(c2ccccc2)C(N=Nc2ccc(C(=O)O)cc2)C1=O)Nc1ccc(F)cc1 (stereo not given) | > 100 | > 100 |  |  | > 100 | > 100 | 81.7 | 24 |  |  |  |  |  |  |  | 
18 | COC(=O)/C=C/C(=O)C1C(C(=O)OC)C2(C(=O)OC)CCC1(C(=O)OC)N2 (stereo not given) | > 100 |  | > 100 | > 100 | > 100 |  |  |  |  |  |  |  |  |  |  | 
19 | CC(=O)NS(=O)(=O)c1ccc(NC(=O)COC(=O)c2cccc3c(=O)c4ccccc4[nH]c23)cc1 | > 100 | > 100 |  | > 100 |  | > 100 |  | > 100 |  |  |  |  |  |  |  | 
20 | CCCCCCCCCCCC(=O)OCC1OC(n2cc(F)c(=O)[nH]c2=O)C(NC(=O)OCc2ccccc2)C(O)C1O (stereo not given) | 63.9 | 41.5 | 32.9 | 42.9 |  | 34.3 | 51.4 |  |  |  |  |  |  |  |  | 
